Source: patent US20110171683A1, “METHODS AND COMPOSITIONS FOR ENUMERATING ANTIBIOTIC-RESISTANT MICROORGANISMS” (priority 2008, published 2011)

System: methicillin-resistant Staphylococcus aureus strain 560
Assay: Colony counts on PETRIFILM plates and blood agar plates containing cefoxitin or oxacillin
Format: cell-based
Conditions: conclusion in words from Tables 1 and 2
Protocol: PETRIFILM Aerobic Count Plates were obtained from 3M Company (St. Paul, Minn.). DIFCO dehydrated tryptic soy agar (TSA) was obtained from BD Diagnostics (Sparks, Md.). Defibrinated sheep blood was obtained from Remel, Inc. (Lenexa, Kans.).
Phosphate-buffered saline (PBS), pH 7.5, was prepared from a 10× concentrate (OmniPur 6505 buffered saline; EMD Chemicals, Inc.; Gibbstown, N.J.) and was sterilized by autoclaving. Antibiotic stock solutions were prepared in deionized water and were sterilized by passage through a 0.22 μm filter.
Sheep blood agar containing cefoxitin (SBA-Cf) was prepared to compare the recovery of antibiotic resistant microorganisms on agar media to the recovery of the antibiotic-resistant microorganisms in a thin-film culture device. Twenty grams of dehydrated TSA was mixed with 475 mL of deionized water and autoclaved. The molten agar was tempered at 50° C. Twenty-five milliliters of defibrinated sheep blood was added to the agar (to yield a final concentration of 5% sheep blood) and swirled to mix. Cefoxitin stock solution (0.5 mL of 4 mg/mL) was added to the agar and swirled to mix. […]
Bacterial strains were inoculated into tryptic soy broth and were incubated overnight at 37° C. […] All plates were incubated at 35° C. and the colonies on each plate were counted at 24±2 hours and 48±4 hours.

| Compound | Sensitivity or resistance of strain 560 to the antibiotic |
| --- | --- |
| CO[C@@]1(NC(=O)Cc2cccs2)C(=O)N2C(C(=O)O)=C(COC(N)=O)CS[C@@H]21 [cefoxitin] | sensitive |
| Cc1onc(-c2ccccc2)c1C(=O)N[C@@H]1C(=O)N2[C@@H]1SC(C)(C)[C@@H]2C(=O)O [oxacillin] | resistant |
